A short description of data set [1]: Stability and protonation constants of Ca^II complexes by pH potentiometry. Format: physicochemical. From the text:
The metal complexes of biomedical interest must show a high in vivo stability, which includes high thermodynamic stability and kinetic inertness to allow targeting applications and to avoid possible toxic effects derived by metal ion and ligand release via transmetalation or transchelation reactions.[2],[3],[13] The protonation constants of L2 as well as the stability and the protonation constants of GdL2 and those of the most important endogenous divalent metal complexes (Ca^II-, Zn^II-, and Cu^II) were determined by pH potentiometry (Table 1 and Table S1). In the case of GdL1, we were interested in determining the dissociation constant of the hydroxyl group that was measured also by pH potentiometry (Table 1). […]
The stability and protonation constants of Ca^2+, Zn^2+, and Cu^2+ complexes formed with the […] ligand were determined by pH potentiometric titration. […] The protonation constants of the GdL1 and GdL2 complexes were determined using pH potentiometry by titrating the preprepared complexes from pH = 3.0 to pH = 12 for GdL2 and from pH = 4.0 to pH = 12 for GdL1 with 0.2 M NaOH. The stability constants of GdL2 were determined by the “out-of-cell” technique because of the slow formation reaction. The pH range of the complexation equilibria and the time needed to reach the equilibria were determined by relaxometry for the formation of GdL2. […]

The nature of data set [2]: Protonation constants of the ligands by pH potentiometry. Format: physicochemical. The note with it: I = 0.15 M NaCl, 298 K. From the text:
The metal complexes of biomedical interest must show a high in vivo stability, which includes high thermodynamic stability and kinetic inertness to allow targeting applications and to avoid possible toxic effects derived by metal ion and ligand release via transmetalation or transchelation reactions.[2],[3],[13] The protonation constants of L2 as well as the stability and the protonation constants of GdL2 and those of the most important endogenous divalent metal complexes (Ca^II-, Zn^II-, and Cu^II) were determined by pH potentiometry (Table 1 and Table S1). In the case of GdL1, we were interested in determining the dissociation constant of the hydroxyl group that was measured also by pH potentiometry (Table 1). Experimental details and the definitions and equations used for the evaluation of the equilibrium and kinetic data are summarized in the SI.
The chemicals used for the experiments were of the highest analytical grade. The concentrations of the CaCl2, ZnCl2, CuCl2, and GdCl3 solutions were determined by complexometric titration with standardized Na2H2EDTA and xylenol orange (ZnCl2, and GdCl3), murexid (CuCl2), and Patton and Reeder (CaCl2) as indicators. The concentration of the H3L1 and H4L2 was determined by pH potentiometric titration in the presence and absence of a large (40-fold) excess of CaCl2. The pH potentiometric titrations were performed with standardized 0.2 M NaOH.
For the pH measurements and titrations, the Metrohm 888 Titrando titration workstation Metrohm-6.0234.110 combined electrode was used. Equilibrium measurements were carried out at a constant ionic strength (0.15 M NaCl) in 6 mL samples at 25 °C. The solutions were stirred, and N2 was bubbled through them. The titrations were made in the pH range 1.7–12.0. KH-phthalate (pH = 4.005) and borax (pH = 9.177) buffers were used to calibrate the pH meter. For the calculation of [H^+] from the measured pH values, the method proposed by Irving et al. was used as follows.[34] A 0.01 M HCl solution was titrated with standardized NaOH solution at 0.15 M NaCl ionic strength. The differences (A) between the measured (pHread) and calculated (−log[H^+]) pH values were used to obtain the equilibrium H^+ concentration from the pH values measured in the titration experiments (A = 0.024). For the equilibrium calculations, the stoichiometric water ionic product (pKw) was also needed to calculate [OH^–] values under basic conditions. The VNaOH–pHread data pairs of the HCl–NaOH titration obtained in the pH range 10.5–12.0 were used to calculate the pKw value (pKw = 13.79).

Data set [3] is described as follows: Stability constants of Gd^III complexes (out-of-cell pH potentiometry). In kind it is physicochemical. The protocol: The stability and protonation constants of Ca^2+, Zn^2+, and Cu^2+ complexes formed with the L1 ligand were determined by pH potentiometric titration. The metal-to-ligand concentration ratio was 1:1 (the concentration of the ligand was generally 0.002 M). The protonation constants of the GdL1 and GdL2 complexes were determined using pH potentiometry by titrating the preprepared complexes from pH = 3.0 to pH = 12 for GdL2 and from pH = 4.0 to pH = 12 for GdL1 with 0.2 M NaOH. The stability constants of GdL2 were determined by the “out-of-cell” technique because of the slow formation reaction. The pH range of the complexation equilibria and the time needed to reach the equilibria were determined by relaxometry for the formation of GdL2. […] For the calculation of the stability constants of GdL2, besides the protonation constants of ligands, the stability constants of the diprotonated *Gd(H2L2) out-of-cage complexes (considered as intermediates) were also used as fixed values, which were calculated from the pH potentiometric titration curve of the Gd^3+–L2 system obtained in the pH range 1.7–4.0.
For the pH measurements and titrations, the Metrohm 888 Titrando titration workstation Metrohm-6.0234.110 combined electrode was used. […] For the calculation of [H^+] from the measured pH values, the method proposed by Irving et al. was used as follows.[34] […]

For data set [4] the following is noted: not fitted: fixed to the value determined for GdHPADO3A ref 7; cited from earlier work.

Marks after values point to notes of the source that are not given here.

For the molecule `O=C(O)CN1CCN(CC(=O)O)CCN(C[C@@H](O)C(=O)O)CCN(CC(=O)O)CC1` [L2, (R)2,2′,2″-(10-(2-Carboxy-2-hydroxyethyl)-1,4,7,10-tetraazacyclododecane-1,4,7-triyl) Triacetic Acid], the “CaHL (log K, protonation constant of the complex)” value in data set [1] (0.15 M NaCl, 25 °C) is recorded as 5.20 (5). Moreover, in data set [1] (I = 0.15 M NaCl, 298 K), the “CaL (log K, stability constant)” value is given as 11.63 (1). The “log K5^H” value in data set [2] (first line headed log K5^H) is 2.47 (4). In addition, in data set [2] (ligand protonation constant), the “log K1^H” value is given as 8.95 (3), the “log K2^H” value is on record as 8.95 (2), the “log K3^H” value is given as 4.22 (3) and the “log K4^H” value is recorded as 3.74 (3). The “log K5^H” value in data set [2] (second line headed log K5^H (sixth constant)) was 1.75 (4). In data set [3] (I = 0.15 M NaCl, 298 K), the “GdL (log KGdL, stability constant)” value is reported as 19.26 (3). Moreover, in data set [3] (KGd(H2L)=[Gd(H2L)]/[Gd3+][H2L], 0.15 M NaCl, 25 °C), the “GdH2L (log K, stability constant of the protonated *Gd(H2L) out-of-cage intermediate)” value was 6.73 (3).
As for `O=C([O-])CN1CCN(CC(=O)[O-])CCN(CC(O)C(=O)O)CCN(CC(=O)[O-])CC1.[Gd+3]` (centres unmarked) [GdL2], in data set [4], the τM is given as 20 ^c ns.

The values above are taken from paper PMC8769378, “Underlining the Importance of Peripheral Protic Functional Groups to Enhance the Proton Exchange of Gd-Based MRI Contrast Agents” (Inorganic Chemistry, 2021).
